Results reported in patent US8785655B2, “Ionic liquid solvents” (Dublin City University, priority 2009, dated 2014).

Key:
[1] = system: Staphylococcus aureus CCM 4516/08; experiment: Screen against bacteria, MIC/IC80; assay type: cell-based; conditions: SA
[2] = system: Staphylococcus aureus H 5996/08 Methiciline-resistant; experiment: Screen against bacteria, MIC/IC80; assay type: cell-based; conditions: MRSA
[3] = system: Staphylococcus epidermidis H 6966/08; experiment: Screen against bacteria, MIC/IC80; assay type: cell-based; conditions: SE
[4] = system: Enterococcus sp. J 14365/08; experiment: Screen against bacteria, MIC/IC80; assay type: cell-based; conditions: EF
Escherichia coli CCM4517 = experiment: Screen against bacteria, MIC/IC80; assay type: cell-based; conditions: EC
[5] = system: Klebsiella pneumoniae D 11750/08; experiment: Screen against bacteria, MIC/IC80; assay type: cell-based; conditions: KP
[6] = system: Klebsiella pneumoniae J 14368/08 ESBL-positive; experiment: Screen against bacteria, MIC/IC80; assay type: cell-based; conditions: KP-E
[7] = system: Pseudomonas aeruginosa CCM 1961; experiment: Screen against bacteria, MIC/IC80; assay type: cell-based; conditions: PA
[8] = system: Candida albicans ATCC 44859; experiment: In vitro antifungal activity, MIC by microdilution (NCCLS M27-A)
[9] = system: Candida albicans ATCC 90028; experiment: as above
Experimental: (§1) In vitro antifungal activities of the compounds were evaluated on the collection of fungal strains deposited at the Department of Biological and Medical Sciences, Faculty of Pharmacy, Charles University, Czech Republic. All the isolates were maintained on Sabouraud dextrose agar prior to being tested.
(§2) Minimum inhibitory concentrations (MICs) were determined by the microdilution format of the NCCLS M27-A guidelines. […] RPMI 1640 (Sevapharma, Prague) medium supplemented with L-glutamine and buffered with 0.165 M morpholinepropanesulfonic acid to pH 7.0 was used as the test medium. The wells of the microdilution tray contained 100 μl of the RPMI 1640 medium with 2-fold serial dilutions of the compounds (1000 to 0.24 μmol/l for the new compounds) and 100 μl of inoculum suspension. Fungal inoculum in RPMI 1640 was prepared to give a final concentration of 5×103±0.2 cfu·ml-1. The trays were incubated at 35° C. and MICs were read visually for filamentous fungi and photometrically for yeasts as an optical density (OD) at 540 nm after 24 h and 48 h. The MICs were defined as 80% inhibition of the growth of control. MICs were determined twice and in duplicate. The deviations from the usually obtained were no higher than the nearest concentration value up and down the dilution scale.

[10] = system: Candida parapsilosis ATCC 22019; experiment: as above; conditions: CP
Experimental: as §1, §2

Candida krusei ATCC 6258 = experiment: as above
Candida krusei E28 = experiment: as above
Candida tropicalis 156 = experiment: as above; conditions: CT
Experimental: as §1, §2

Candida glabrata 20/l = experiment: as above; conditions: CG
Experimental: as §1, §2

[11] = system: Candida lusitaniae 2446/l; experiment: as above; conditions: CL
[12] = system: Aspergillus fumigatus 231; experiment: as above; conditions: AF
Absidia corymbifera 272 = experiment: as above; conditions: AC
[13] = system: Trichophyton mentagrophytes 445; experiment: as above; conditions: TM

| Molecule | MIC/IC80 ([1]; 24 h) [µM] | MIC/IC80 ([1]; 48 h) [µM] | MIC/IC80 ([2]; 24 h) [µM] | MIC/IC80 ([2]; 48 h) [µM] | MIC/IC80 ([3]; 24 h) [µM] | MIC/IC80 ([3]; 48 h) [µM] | MIC/IC80 ([4]; 24 h) [µM] | MIC/IC80 ([4]; 48 h) [µM] | MIC/IC80 (Escherichia coli CCM4517; 24 h) [µM] | MIC/IC80 (Escherichia coli CCM4517; 48 h) [µM] | MIC/IC80 ([5]; 24 h) [µM] | MIC/IC80 ([5]; 48 h) [µM] | MIC/IC80 ([6]; 24 h) [µM] | MIC/IC80 ([6]; 48 h) [µM] | MIC/IC80 ([7]; 24 h) [µM] | MIC/IC80 ([7]; 48 h) [µM] | MIC/IC80 ([8]; CA1, 24 h) [µM] | MIC/IC80 ([8]; CA1, 48 h) [µM] | MIC/IC80 ([9]; CA2, 24 h) [µM] | MIC/IC80 ([9]; CA2, 48 h) [µM] | other results |
| --- | --- | --- | --- | --- | --- | --- | --- | --- | --- | --- | --- | --- | --- | --- | --- | --- | --- | --- | --- | --- | --- |
| CCCCCOC(=O)[C@H](OC(=O)C[n+]1ccn(C)c1)c1ccccc1 [KG833, R-3-methyl-1-[1-(pentoxycarbonyl)-1-phenylmethoxycarbonylmethyl]imidazolium bromide] | 1000 | >1000 | >1000 | >1000 | >1000 | >1000 | >1000 | >1000 | >1000 | >1000 | >1000 | >1000 | >1000 | >1000 | >1000 | >1000 | 500 | >1000 | 1000 | >1000 | MIC/IC80 ([10]; 24 h): >1000 µM; MIC/IC80 ([10]; 48 h): >1000 µM; MIC/IC80 (Candida krusei ATCC 6258; CK1, 24 h): 1000 µM; MIC/IC80 (Candida krusei ATCC 6258; CK1, 48 h): >1000 µM; MIC/IC80 (Candida krusei E28; CK2, 24 h): 1000 µM; MIC/IC80 (Candida krusei E28; CK2, 48 h): >1000 µM; MIC/IC80 (Candida tropicalis 156; 24 h): 1000 µM; MIC/IC80 (Candida tropicalis 156; 48 h): >1000 µM; MIC/IC80 (Candida glabrata 20/l; 24 h): 1000 µM; MIC/IC80 (Candida glabrata 20/l; 48 h): >1000 µM; MIC/IC80 ([11]; 24 h): >1000 µM; MIC/IC80 ([11]; 48 h): >1000 µM; MIC/IC80 ([12]; 24 h): 1000 µM; MIC/IC80 ([12]; 48 h): 1000 µM; MIC/IC80 (Absidia corymbifera 272; 24 h): 1000 µM; MIC/IC80 (Absidia corymbifera 272; 48 h): 1000 µM; MIC/IC80 ([13]; 72 h): 500 µM; MIC/IC80 ([13]; 120 h): 500 µM |
| R-3-methyl-1-[1-(pentoxycarbonyl)-1-methylmethoxycarbonylmethyl]imidazolium octyl sulphate [KG171] | >1000 | >1000 | >1000 | >1000 | >1000 | >1000 | >1000 | >1000 | >1000 | >1000 | >1000 | >1000 | >1000 | >1000 | >1000 | >1000 | >1000 | >1000 | >1000 | >1000 | MIC/IC80 ([10]; 24 h): >1000 µM; MIC/IC80 ([10]; 48 h): >1000 µM; MIC/IC80 (Candida krusei ATCC 6258; CK1, 24 h): >1000 µM; MIC/IC80 (Candida krusei ATCC 6258; CK1, 48 h): >1000 µM; MIC/IC80 (Candida krusei E28; CK2, 24 h): >1000 µM; MIC/IC80 (Candida krusei E28; CK2, 48 h): >1000 µM; MIC/IC80 (Candida tropicalis 156; 24 h): >1000 µM; MIC/IC80 (Candida tropicalis 156; 48 h): >1000 µM; MIC/IC80 (Candida glabrata 20/l; 24 h): >1000 µM; MIC/IC80 (Candida glabrata 20/l; 48 h): >1000 µM; MIC/IC80 ([11]; 24 h): >1000 µM; MIC/IC80 ([11]; 48 h): >1000 µM; MIC/IC80 ([12]; 24 h): >1000 µM; MIC/IC80 ([12]; 48 h): >1000 µM; MIC/IC80 (Absidia corymbifera 272; 24 h): >1000 µM; MIC/IC80 (Absidia corymbifera 272; 48 h): >1000 µM; MIC/IC80 ([13]; 72 h): >1000 µM; MIC/IC80 ([13]; 120 h): >1000 µM |
| CCCCCCCCOS(=O)(=O)[O-].CCOCCOC(=O)C(C)OC(=O)Cn1cc[n+](C)c1 (centres unmarked) [KG172, RS-3-methyl-1-[1-(ethoxyethoxycarbonyl)-1-methylmethoxycarbonylmethyl]imidazolium octyl sulphate] | >1000 | >1000 | >1000 | >1000 | >1000 | >1000 | >1000 | >1000 | >1000 | >1000 | >1000 | >1000 | >1000 | >1000 | >1000 | >1000 | >1000 | >1000 | >1000 | >1000 | MIC/IC80 ([10]; 24 h): >1000 µM; MIC/IC80 ([10]; 48 h): >1000 µM; MIC/IC80 (Candida krusei ATCC 6258; CK1, 24 h): >1000 µM; MIC/IC80 (Candida krusei ATCC 6258; CK1, 48 h): >1000 µM; MIC/IC80 (Candida krusei E28; CK2, 24 h): >1000 µM; MIC/IC80 (Candida krusei E28; CK2, 48 h): >1000 µM; MIC/IC80 (Candida tropicalis 156; 24 h): >1000 µM; MIC/IC80 (Candida tropicalis 156; 48 h): >1000 µM; MIC/IC80 (Candida glabrata 20/l; 24 h): >1000 µM; MIC/IC80 (Candida glabrata 20/l; 48 h): >1000 µM; MIC/IC80 ([11]; 24 h): >1000 µM; MIC/IC80 ([11]; 48 h): >1000 µM; MIC/IC80 ([12]; 24 h): >1000 µM; MIC/IC80 ([12]; 48 h): >1000 µM; MIC/IC80 (Absidia corymbifera 272; 24 h): >1000 µM; MIC/IC80 (Absidia corymbifera 272; 48 h): >1000 µM; MIC/IC80 ([13]; 72 h): >1000 µM; MIC/IC80 ([13]; 120 h): >1000 µM |
| CCCCCOC(=O)[C@@H](OC(=O)Cn1cc[n+](C)c1)c1ccccc1.[Br-] [KG824, S-3-methyl-1-[1-(pentoxycarbonyl)-1-phenylmethoxycarbonylmethyl]imidazolium bromide] | >1000 | >1000 | >1000 | >1000 | >1000 | >1000 | >1000 | >1000 | >1000 | >1000 | >1000 | >1000 | >1000 | >1000 | >1000 | >1000 | 500 | >1000 | 1000 | >1000 | MIC/IC80 ([10]; 24 h): >1000 µM; MIC/IC80 ([10]; 48 h): >1000 µM; MIC/IC80 (Candida krusei ATCC 6258; CK1, 24 h): 1000 µM; MIC/IC80 (Candida krusei ATCC 6258; CK1, 48 h): >1000 µM; MIC/IC80 (Candida krusei E28; CK2, 24 h): 1000 µM; MIC/IC80 (Candida krusei E28; CK2, 48 h): >1000 µM; MIC/IC80 (Candida tropicalis 156; 24 h): >1000 µM; MIC/IC80 (Candida tropicalis 156; 48 h): >1000 µM; MIC/IC80 (Candida glabrata 20/l; 24 h): 1000 µM; MIC/IC80 (Candida glabrata 20/l; 48 h): >1000 µM; MIC/IC80 ([11]; 24 h): >1000 µM; MIC/IC80 ([11]; 48 h): >1000 µM; MIC/IC80 ([12]; 24 h): 1000 µM; MIC/IC80 ([12]; 48 h): 1000 µM; MIC/IC80 (Absidia corymbifera 272; 24 h): 1000 µM; MIC/IC80 (Absidia corymbifera 272; 48 h): 1000 µM; MIC/IC80 ([13]; 72 h): 500 µM; MIC/IC80 ([13]; 120 h): 500 µM |
